The source of these data is patent US5091398A, “Substituted 1,2,3,4-oxatriazolium-5-olates, a process for their preparation and their use” (Cassella Aktiengellschaft, priority 1989, dated 1992).

This assay has as its system pulmonary artery of the guinea pig. Description: relaxing effect on spiral strips of the pulmonary artery of the guinea pig (modified method of Godfraind and Kaba and of Schuman et al.). Conditions: strips depolarised with 40 mmol/l potassium in calcium-free Tyrode solution, contraction by 0.5 mmol/l CaCl2, cumulative addition, mean value of 4 to 6 vessel strips, read-out: IC50 (concentration of the test substance which inhibits the contraction by 50%) (converted). On the procedure: The pharmacological effect of the compounds of the formula I was determined according to a modified method of Godfraind and Kaba (Arch. Int. Phamacodyn. Ther. 196, (Suppl) 35 to 49, 1972) and of Schuman et al. (Naunyn-Schmiedeberg's Arch. Phamacol. 289, 409 to 418, 1975). Spiral strips of the pulmonary artery of the guinea pig are depolarised with 40 mmol/1 of potassium after equilibration in calcium-free Tyrode solution. An addition of 0.5 mmol/1 of CaCl2 then induces a contraction. The relaxing effect of the test substance is determined by cumulative addition in 1/2 log 10 stepped concentrations. The concentration of the test substance which inhibits the contraction by 50% (=IC50, mol/1) is determined from the concentration-effect curve (abscissa: -log mol/1 of test substance, ordinate: percentage inhibition of the maximum contraction, mean value of 4 to 6 vessel strips).

Read-outs that look alike come from different tables or passages of the source.

On to `CCOC(=O)[N-]c1cn(N2CCOCC2)n[o+]1` [Molsidomine, N-ethoxycarbonyl-3-morpholinosydnoneimine, reference compound], for which the IC50 was more than 100000 nM. With `CC(C)(C)NC(=O)C(C)(C)[n+]1noc([O-])n1` [Example 4, 3-(1-tert-Butylaminocarbonyl-1-methylethyl)-1,2,3,4-oxatriazolium-5-olate], where the note is “Cavia porcellus”, the IC50 is 60000 nM.

In the case of `CCCC(C)(C)[n+]1noc([O-])n1` [Example 5, 3-(2-Methylpent-2-yl)-1,2,3,4-oxatriazolium-5-olate], the IC50 (Cavia porcellus) was 600 nM.

With `CCC(C)(C)[n+]1noc([O-])n1` [Example 1, 3-tert-Pentyl-1,2,3,4-oxatriazolium-5-olate], the IC50 (Cavia porcellus) is 3000 nM.
